Experimental data published in patent US20170050934A1 (priority 2014, published 2017).

Key:
[1] = system: rice blast fungus (Magnaporthe grisea); test: microbe, parasite or virus in culture; format: cell-based; conditions: Pyricularia oryzae, read-out: antimicrobial activity, inhibition of Magnaporthe grisea
[2] = system: Botrytis cinerea AARF-033; test: Antimicrobial activity test against rice Botrytis cinerea (conidia, 96 well microplate); format: cell-based; conditions: AARF033, 96 h, conidia 1×10^4 conidia/ml in potato-glucose broth, 25° C. for 4 days
Source text: Test specimen (compound (A2-1) and compound (A5-1)) and reference agents i.e. iprodione and captan, were, respectively, dissolved in dimethyl sulfoxide (DMSO) and adjusted to 10,000 ppm. To a flat bottom 96 well microplate, 2 μ/ml of each test solution was dispensed, and then, 198 μ/ml of conidia of rice Botrytis cinerea (Botrytis cinerea AARF-033) cultured on a potato-glucose agar medium, and suspended in a potato-glucose broth and adjusted to 1×10^4 conidia/ml, were dispensed, followed by stirring by a micro mixer. At that time, the concentration of each test specimen and reference agent, was 100 ppm. Thereafter, culturing under standing-still condition was conducted at 25° C. for 4 days, whereby the antimicrobial activities were evaluated.

Compound | inhibition at 100 ppm [1] | inhibition at 100 ppm [2]
CCCCNC(=O)n1c(NC(=O)OC)nc2ccccc21 [Benomyl, benomyl] | ≥ 95% | –
O=C1C2CC=CCC2C(=O)N1SC(Cl)(Cl)Cl (centres unmarked) [Captan, captan] | – | ≥ 95%
CCOC(=O)c1cnc(-c2ccccc2)nc1C(F)(OC(F)(F)C(F)(F)C(F)(F)F)C(F)(F)F (centres unmarked) [Compound A2-1] | ≥ 95% | ≥ 95%
Nc1cnc(-c2ccccc2)nc1C(F)(F)OC(F)(F)C(F)(F)OC(F)(F)C(F)(F)F [Compound A5-1] | ≥ 95% | ≥ 95%
CO/N=C(/C1=NOCCO1)c1ccccc1Oc1ncnc(Oc2ccccc2Cl)c1F [Fluoxastrobin, fluoxastrobin] | ≥ 95% | –
CC(C)NC(=O)N1CC(=O)N(c2cc(Cl)cc(Cl)c2)C1=O [Iprodione, iprodione] | – | ≥ 95%
